Molecules are shown by their SMILES. Converted amounts (≈) assume the structure as drawn. Where a name gives a salt, the structure may show the parent alone. Read-outs that look alike come from different tables or passages of the source.

This is an account of results in paper PMC7540527, “Synthesis of Antiviral Perfluoroalkyl Derivatives of Teicoplanin and Vancomycin” (Chemmedchem, 2020).

Data set [1] deals with thymidine-kinase deficient (TK-) mutant of HSV-1. As to the kind of experiment: microbe, parasite or virus in culture. Format: cell-based, herpes simplex virus type 1. As to conditions: Human alphaherpesvirus 1, HEL, read-out: Antiviral EC50 HSV‐1/TK−.
Data set [2] concerns herpes simplex virus type 2 (HSV-2). As to the kind of experiment: microbe, parasite or virus in culture. It counts as cell-based. The following applies: Human alphaherpesvirus 2, HEL, read-out: Antiviral EC50 HSV‐2.
Data set [3] in a line: in vitro. As to conditions: human.
Data set [4] concerns vaccinia virus. As to the kind of experiment: microbe, parasite or virus in culture. The following applies: Orthopoxvirus vaccinia, HEL, read-out: Antiviral EC50 Vaccinia. Format: cell-based.
Data set [5] concerns human adenovirus type 2 (AdV-2). As to the kind of experiment: microbe, parasite or virus in culture. Format: cell-based. The following applies: Human mastadenovirus C, HEL, read-out: Antiviral EC50 AdV‐2.
Data set [6] has as its system herpes simplex virus type 1 (HSV-1). As to the kind of experiment: microbe, parasite or virus in culture. It counts as cell-based. The following applies: Human alphaherpesvirus 1, HEL, read-out: Antiviral EC50 HSV‐1.
Data set [7] relates to Zika virus (strain MR766). As to the kind of experiment: microbe, parasite or virus in culture. Format: cell-based. As to conditions: Vero.
Data set [8] has as its system Coxsackie virus B4. As to the kind of experiment: microbe, parasite or virus in culture. It counts as cell-based. As to conditions: Enterovirus B, B4, Vero.
Data set [9] is described as follows: in vitro. The following applies: African green monkey.
The subject of data set [10] is Yellow Fever virus (17D). As to the kind of experiment: microbe, parasite or virus in culture. It counts as cell-based. As to conditions: Vero.
Data set [11] relates to Punta Toro virus. As to the kind of experiment: microbe, parasite or virus in culture. Format: cell-based. The following applies: Vero.
The subject of data set [12] is Reovirus-1. As to the kind of experiment: organism not typed. It counts as cell-based. As to conditions: Vero.
In data set [13] the test system is Vero cells. The following applies: African green monkey.
The subject of data set [14] is Sindbis virus. As to the kind of experiment: microbe, parasite or virus in culture. Format: cell-based. The following applies: Vero.
For data set [15], the system named is influenza A/H1N1 A/Ned/378/05. As to the kind of experiment: microbe, parasite or virus in culture. It counts as cell-based, influenza A virus. As to conditions: Influenza A virus, H1N1, MDCK.
Data set [16] concerns MDCK cells.
Data set [17] relates to influenza A/H3N2 A/Victoria/361/11. As to the kind of experiment: microbe, parasite or virus in culture. The following applies: Influenza A virus, H3N2, MDCK. It counts as cell-based, influenza A virus.
The subject of data set [18] is influenza B virus B/Ned/537/05. As to the kind of experiment: CPE reduction assay for influenza virus in MDCK cells, influenza B. It counts as cell-based. As to conditions: Influenza B virus. The method, then: The CPE reduction assay for influenza virus was described in full detail in previous publications.41 The virus strains were: A/PR/8/34 (A/H1 N1); A/Virginia/ATCC3/2009 (A/H1 N1pdm); A/HK/7/87 (A/H3 N2); B/Ned/537/05; and B/HK/5/72. On day 0, Madin‐Darby canine kidney (MDCK) cells in 96‐well plates were infected with influenza virus at a multiplicity of infection (MOI) of 0.0004 plaque forming units (PFU) per cell. After three days incubation at 35 °C, virus‐induced CPE and compound cytotoxicity were scored by microscopy, after which the data were confirmed by formazan‐based MTS cell viability assay (CellTiter 96® AQueous One Solution Cell Proliferation Assay from Promega). The antiviral effect was expressed as the compound concentration producing 50 % inhibition of the virus‐induced CPE (EC50). Compound cytotoxicity was expressed as the compound concentration causing minimal changes in cell morphology (MCC), and 50 % cytotoxic concentration (CC50) based on MTS assay.42

A short description of data set [19]: in vitro. The following applies: dog.
For data set [20], the system named is Respiratory syncytial virus. As to the kind of experiment: microbe, parasite or virus in culture. Format: cell-based. As to conditions: human respiratory syncytial virus, HeLa, read-out: Antiviral EC50 Respiratory syncytial virus, Visual CPE score.
The test system of data set [21] is Vesicular stomatitis virus. As to the kind of experiment: microbe, parasite or virus in culture. Format: cell-based. The following applies: HeLa, read-out: Antiviral EC50 Vesicular stomatitis virus, Visual CPE score.
A short description of data set [22]: in vitro. The following applies: human. The source holds these as a separate data set.
In data set [23] the test system is Coxsackie virus B4. As to the kind of experiment: microbe, parasite or virus in culture. Format: cell-based. As to conditions: Enterovirus B, B4, HeLa, read-out: Antiviral EC50 Coxsackie virus B4, Visual CPE score.
Data set [24] has as its system E. faecalis ATCC 51299 VanB. As to the kind of experiment: Antibacterial MIC. The following applies: Enterococcus faecalis, ATCC51299, read-out: MIC E. faecalis ATCC 51299 VanB. It counts as cell-based, Enterococcus faecalis.
Data set [25] concerns E. faecalis 15376 VanA. As to the kind of experiment: Antibacterial MIC. As to conditions: Enterococcus faecalis, 15376VANA, read-out: MIC E. faecalis 15376 VanA. It counts as cell-based, Enterococcus faecalis.
The subject of data set [26] is Enterococcus faecalis ATCC 29212. As to the kind of experiment: Antibacterial MIC. Format: cell-based. The following applies: Enterococcus faecalis, ATCC29212, read-out: MIC Enterococcus faecalis ATCC 29212.
Data set [27] relates to S. aureus MRSA ATCC 33591. As to the kind of experiment: Antibacterial MIC. It counts as cell-based, Staphylococcus aureus. The following applies: Staphylococcus aureus, read-out: MIC S. aureus MRSA ATCC 33591.
The subject of data set [28] is Bacillus subtilis ATCC 6633. As to the kind of experiment: Antibacterial MIC. It counts as cell-based. The following applies: Bacillus subtilis, ATCC6633, read-out: MIC Bacillus subtilis ATCC 6633.
Data set [29] deals with Staphylococcus epidermidis ATCC 35984 biofilm. As to the kind of experiment: Antibacterial MIC. Format: cell-based.
Data set [30] has as its system panel of Gram-positive bacteria. Format: cell-based.
Data set [31] deals with HeLa cells. The following applies: human.
Data set [32] deals with Staphylococcus aureus MSSA ATCC 29213. As to the kind of experiment: Antibacterial MIC. As to conditions: Staphylococcus aureus, read-out: MIC Staphylococcus aureus MSSA ATCC 29213. Format: cell-based.
Where [33] appears, read: read-out: Antiviral EC50 A/H1N1 CPE.
The mark [34] stands for this setting: read-out: Antiviral EC50 A/H1N1 MTS.
Setting [35] is: read-out: Antiviral EC50 A/H3N2 CPE.
Setting [36] is: read-out: Antiviral EC50 A/H3N2 MTS.

In the case of `Nc1ccn(C[C@@H](CO)OCP(=O)(O)O)c(=O)n1` [cidofovir], the EC50 in [1] came out at 4.7 µM; in [2], 1 µM; in data set [4], 10 µM; in [5], 6.4 µM; in data set [6], 2.4 µM. The CC50 in data set [3] was over 250 µM.

On to `COc1c(C)c2c(c(O)c1C/C=C(\C)CCC(=O)O)C(=O)OC2` [Mycophenolic acid], for which the EC50 was 1.5 µM in data set [7] (read-out: Antiviral EC50 Zika virus, MTS); 0.8 µM in data set [7] (read-out: Antiviral EC50 Zika virus, Visual CPE score); over 100 µM in data set [8] (read-out: Antiviral EC50 Coxsackie virus B4, MTS); over 100 µM in data set [8] (read-out: Antiviral EC50 Coxsackie virus B4, Visual CPE score); 1.4 µM in data set [10] (read-out: Antiviral EC50 Yellow Fever virus, MTS); over 100 µM in [10] (read-out: Antiviral EC50 Yellow Fever virus, Visual CPE score). For the same compound, the EC50 in data set [11] (read-out: Antiviral EC50 Punta Toro virus, MTS) is 10.6 µM; in [11] (read-out: Antiviral EC50 Punta Toro virus, Visual CPE score), over 100 µM; in data set [12] (read-out: Antiviral EC50 Reovirus-1, MTS) it was 4 µM; in data set [12] (read-out: Antiviral EC50 Reovirus-1, Visual CPE score) it was 3.3 µM; in [14] (read-out: Antiviral EC50 Sindbis virus, MTS), 4 µM; in data set [14] (read-out: Antiviral EC50 Sindbis virus, Visual CPE score), 5.7 µM. Moreover, in data set [9], the CC50 was over 100 µM. In addition, the “Cytotoxicity MCC” value in data set [13] was over 100.

As for `CN[C@H](CC(C)C)C(=O)N[C@H]1C(=O)N[C@@H](CC(N)=O)C(=O)N[C@H]2C(=O)N[C@H]3C(=O)N[C@H](C(=O)N[C@H](C(=O)O)c4cc(O)cc(O)c4-c4cc3ccc4O)[C@H](O)c3ccc(c(Cl)c3)Oc3cc2cc(c3O[C@@H]2O[C@H](CO)[C@@H](O)[C@H](O)[C@H]2O[C@H]2C[C@](C)(N)[C@H](O)[C@H](C)O2)Oc2ccc(cc2Cl)[C@H]1O` [vancomycin⋅HCl], the EC50 was over 100 µM in [15] (setting [33]); over 100 µM in [15] (setting [34]); over 100 µM in data set [17] (setting [35]); over 100 µM in data set [17] (setting [36]); over 100 µM in [18] (MDCK, read-out: Antiviral EC50 Influenza B CPE); over 100 µM in [18] (MDCK, read-out: Antiviral EC50 Influenza B MTS). Further, in data set [16] (dog), the “Cytotoxicity MCC (minimum cytotoxic concentration)” value was over 100 µM. Besides, the CC50 in data set [19] is over 100 µM.

Turning to `CC(=O)N[C@H]1[C@H]([C@H](O)[C@H](O)CO)OC(C(=O)O)=C[C@@H]1N=C(N)N` [zanamivir], the EC50 in data set [15] (setting [33]) is 1.5 µM; in [15] (setting [34]), 3.1 µM; in data set [17] (setting [35]) it was 20 µM; in data set [17] (setting [36]), 9 µM; in data set [18] (MDCK cells, B/Ned/537/05, MTS assay, read-out: Antiviral EC50 Influenza B MTS), 1.7 µM; in data set [18] (MDCK cells, B/Ned/537/05, visual CPE scoring, read-out: Antiviral EC50 Influenza B CPE), 2 µM. In addition, the “Cytotoxicity MCC (minimum cytotoxic concentration)” value in data set [16] (dog) was over 100 µM. The CC50 in [19] was over 100 µM.

Regarding `Cc1cn([C@H]2C[C@H](F)[C@@H](CO)O2)c(=O)[nH]c1=O` [alovudine], the CC50 in data set [3] is over 250 µM. Moreover, the EC50 in data set [5] was 5.9 µM.

With `Nc1nc2c(ncn2COCCO)c(=O)[nH]1` [acyclovir], the EC50 was 0.05 µM in [2], over 250 µM in data set [4] and 2.4 µM in data set [6]. The compound further displayed a CC50 in data set [3] of over 250 µM.

`NC(=O)c1ncn([C@@H]2O[C@H](CO)[C@@H](O)[C@H]2O)n1` [Ribavirin]: the EC50 in data set [20] stood at 5 µM; in [21] it was 87 µM; in [23], 126 µM. The same compound gave a CC50 in data set [22] of over 250 µM.

Broadly, the MIC is the smallest concentration in the dilution series that meets the test's criterion for growth inhibition. With `CC(C)C[C@H](C(=O)N[C@H]1C(=O)N[C@@H](CC(N)=O)C(=O)N[C@H]2C(=O)N[C@H]3C(=O)N[C@H](C(=O)N[C@H](C(=O)O)c4cc(O)cc(O)c4-c4cc3ccc4O)[C@H](O)c3ccc(c(Cl)c3)Oc3cc2cc(c3O)Oc2ccc(cc2Cl)[C@H]1O)n1cc(COCCOCCOCCOCCOCCCC(F)(F)C(F)(F)C(F)(F)C(F)(F)C(F)(F)C(F)(F)C(F)(F)C(F)(F)F)nn1` [Compound 13], the MIC in [24] was 32 µg/mL (≈ 17.3 µM); in data set [25], 256 µg/mL (≈ 139 µM); in [26], 4 µg/mL (≈ 2.16 µM); in data set [27], 8 µg/mL (≈ 4.33 µM); in data set [28] it was 16 µg/mL (≈ 8.66 µM); in data set [32] it was 8 µg/mL (≈ 4.33 µM). Moreover, in data set [16], the “Cytotoxicity in MDCK cells (in words)” value was “highly cytotoxic”. The CC50 is 0.8 µM in [16] (dog) and over 100 µM in data set [31]. The “Cytotoxicity MCC (minimum cytotoxic concentration)” value in data set [16] (dog) came out at 0.8 µM. Further, in data set [29], the “MIC Staphylococcus epidermidis ATCC 35984 biofilm” value was determined as 16 µg/mL (≈ 8.66 µM). Further, the “Antibacterial activity (in words)” value in data set [30] is “moderate activity”. Further, the “Cytotoxicity MCC” value in data set [31] is at least 100.
